How the values were obtained:
human platelets [1] = test: Clot retraction, human platelet-rich plasma; assay type: cell-based; conditions: thrombin stimulation, ML265 50 and 100 μM, dose-dependent
Protocol: (§1) To measure thrombin-stimulated fibrin clot retraction PRP was treated with ML265 (50 and 100 μM) or vehicle control (DMSO) for 10 minutes. Tyrode buffer was added to test tubes, along with red blood cells, to allow visualization of the clot. This was followed by the addition of PRP. Clot formation was initiated by adding thrombin (final concentration 0.25 U/ml) to the test tubes. Photographs were taken every 15 minutes and the assay was terminated after 60 minutes at which time the clot in the vehicle-treated samples were seen to have retracted completely. Clot area was analyzed using Image J software from NIH (Bethesda, MD, USA).

male mice = test: Tail bleeding assay; assay type: in vivo, mouse; conditions: male mice pretreated with ML265
Protocol: (§2) Initially ML265 dissolved in DMSO was mixed with 200 μl of deionized water and administered intra-peritoneally to the at a dose of 25 and 50-mg/Kg body weight. In vivo thrombosis and tail transection assays were performed 10 minutes after administration of ML265 or vehicle infusion by a person who was blinded to the drug and vehicle infusion.
Tail-transection bleeding time was measured. Briefly, mice (approximately 8 weeks of age) were anesthetized with 100-mg/kg ketamine and 10-mg/kg xylazine and placed on a heating pad warmed at 37° C., and a 3 mm segment of the tail was amputated with a sharp scalpel blade. The tail was immediately immersed in saline (at 37° C.), and the time taken for the stream of blood to stop for more than 30 seconds was defined as the bleeding time.

mouse whole blood = test: Bioflux flow chamber assay, mouse whole blood on collagen; assay type: cell-based; conditions: ML265 150 μM
Protocol: (§3) In vitro thrombosis assays were performed using BioFlux™ 200 (Fluxion Biosciences, USA) microfluidics flow chamber (Nayak et al., 2018). The channels were coated with Type I collagen (100 μg/ml) for one hour at room temperature and then blocked with 0.5% BSA for 30 minutes. Platelets were isolated from citrated whole blood as described above, washed, labeled with the fluorescent dye (calcein AM; 2 μM) and were reconstituted back with PPP and remaining blood containing leukocytes and RBC. The whole blood pretreated with ML265 or vehicle (DMSO) was perfused over the collagen-coated plate at shear stress 1500 s^−1 for 5 minutes. Experiments were performed in triplicates using whole blood from human and mice. The fluorescently labeled platelets/thrombi on the collagen-coated surface were analyzed using ImageJ software from NIH (Bethesda, MD, USA).

murine platelets = test: Clot retraction, mouse platelet-rich plasma; assay type: cell-based; conditions: thrombin 0.25 U/ml, ML265 50 and 100 μM
Protocol: as §1

[2] = tested on: male wild-type mice on C57B16/J background; test: FeCl3 injury-induced carotid artery thrombosis; assay type: in vivo, mouse
Protocol: as §2
Thrombus formation in the carotid artery after the FeCl3 injury was assessed by intravital microscopy. Briefly, 8-10 weeks old mice were anesthetized using 100-mg/kg ketamine and 10-mg/kg xylazine. Platelets labeled with calcein green (2.5×10^9 platelets per kg) were infused through the retro-orbital plexus. The common carotid artery was carefully exposed and kept moist by super-fusion with warm (˜37° C.) saline. Whatman paper (0.5×1.5 mm) saturated with ferric chloride (5%) solution was applied topically for 1.5 minutes for male and 2 mins for female mice, and thrombus formation in the injured carotid vessel was monitored in real time using a Nikon upright microscope (Plan Fluor 4×/0.2 objective), and thrombus growth overtime was recorded using a high-speed electron-multiplying camera for 40 minutes or until occlusion occurred. The time to form occlusive thrombus was considered as the time required for blood to stop flowing completely for >1 minute. Videos were evaluated off-line using a Nikon computer-assisted image analysis program.

[3] = tested on: male obese mice (fed a high-fat diet for 4 months); test: FeCl3-injury induced carotid artery thrombosis in obese mice; assay type: in vivo, mouse; conditions: 5.0% FeCl3 injury, infused with ML265
From the text: FIGS. 16A-16D. ML265 inhibits platelet aggregation and arterial thrombosis in pre-existing comorbid condition of obesity. Wild-type (C57BL6/J) mice fed a chow and high-fat diet (Cat #TD.06414, Envigo, 60% Kcal from fat) for 4 months. (A) Blood glucose levels (B) Blood glucose levels during the insulin tolerance test. Statistics (A & B): Two-way ANOVA with Tukey's multiple comparisons test (*P<0.05, **P<0.01, ***P<0.001, ****P<0.0001; n=10 mice/group). (C) Platelet rich plasma or washed platelets from obese mice were pretreated with vehicle or ML265 and stimulated with agonists including collagen (1 μg/mL) and thrombin (0.02 U/mL). The results are represented as percent change light transmission after subtracting the blank (platelet poor plasma/Tyrode's buffer). […]
Thrombus formation in the carotid artery after the FeCl3 injury was assessed by intravital microscopy. […] Whatman paper (0.5×1.5 mm) saturated with ferric chloride (5%) solution was applied topically for 1.5 minutes for male and 2 mins for female mice, and thrombus formation in the injured carotid vessel was monitored in real time using a Nikon upright microscope (Plan Fluor 4×/0.2 objective), and thrombus growth overtime was recorded using a high-speed electron-multiplying camera for 40 minutes or until occlusion occurred. […] Videos were evaluated off-line using a Nikon computer-assisted image analysis program.

human platelets [4] = test: Thromboxane (TxB2) assay, human platelets; assay type: cell-based; conditions: convulxin-stimulated human platelets pre-treated with ML265
Protocol: The TxB2 assay was done. Briefly, PRP or washed platelets (2×10^8 platelets/mL) was stimulated with convulxin or thrombin for 3 minutes utilizing an aggregometer, and the reaction was stopped by quickly freezing the sample in a dry ice-methanol bath. Before performing the TXB2 measurement assay, samples were thawed and centrifuged at 15,000 g for 3 minutes. The supernatants were diluted 1:50 with assay buffer and levels of TxB2 (a stable metabolite of TxA2) were determined in triplicate using an immunoassay kit (Abcam Thromboxane B2 enzyme-linked immunosorbent assay kit) according to the manufacturer's instructions.

mouse platelets = test: Annexin V-affinity assay, mouse platelets; assay type: cell-based; conditions: increasing concentrations of ML265
Protocol: Mouse and human washed platelets (1×10^8/ml) were pre-incubated with different concentrations of ML265 ([…]). Washed platelets activated with thrombin (0.5 U/ml)+convulxin (100 ng/ml) were used as a positive control. The samples were added to 1× Annexin V-binding buffer (BD Biosciences). Following this, annexin V-FITC antibody was added to each sample, gently mixed, and incubated at room temperature for 15 minutes in the dark. After incubation, 1× Annexin-binding buffer was added to each tube and analyzed by a Becton Dickinson FACSCalibur flow cytometer.

human whole blood = test: Bioflux flow chamber assay, human whole blood on collagen; assay type: cell-based
Protocol: as §3

Cn1c2cc([S+](C)[O-])sc2c2cnn(Cc3cccc(N)c3)c(=O)c21 (stereo not drawn) [ML265, 6-[(3-aminophenyl)methyl]-4,6-dihydro-4-methyl-2-(methylsulfinyl)-5H-thieno[2′,3′:4,5]pyrrolo[2,3-d]pyridazine-5-one]
clot retraction (human platelets [1]): significantly inhibited | mean time to cessation of bleeding (tail-transection bleeding time) vs vehicle (male mice): comparable | thrombus growth rate vs vehicle control (mouse whole blood; collagen, 1500 s-1): marked reduction | percent of the area covered by platelets vs vehicle control (mouse whole blood; collagen, 1500 s-1, 5 minutes): marked reduction | rate of thrombus growth (slope over time) (mouse whole blood; vehicle slope 236.1): 61.65 | clot retraction (murine platelets): significant decrease | mice that did not occlude ([2]; ML265-pretreated wild-type mice): 50% | time to occlusion, a large number of ML265 pre-treated mice (did not occlude) ([2]; control group approximately 20 mins): > 40 min | rate of thrombus growth (slope over time) ([2]; male mice pretreated with ML265, 5% FeCl3, vehicle slope 4.862): 1.531 | time to complete vessel occlusion vs vehicle ([2]; male wild-type mice pretreated with ML265): significantly prolonged | reduction in the extent of thrombus growth vs vehicle ([2]; male wild-type mice, ML265 i.p. 10 minutes before 5% FeCl3 injury): ~4 fold | arterial thrombosis in pre-existing comorbid condition of obesity [3]: inhibited | levels of TxB2 (stable metabolite of TxA2) (human platelets [4]): reduced | apoptosis in resting platelets (Annexin V binding) (mouse platelets): does not induce | reduction in the thrombus growth rate vs vehicle control (human whole blood; ML265 150 μM, collagen, 1500 s-1): ~5 fold | reduction in percent of the area covered by platelets vs vehicle control (human whole blood; ML265 150 μM, collagen, 1500 s-1, 5 minutes): ~5 fold | rate of thrombus growth (slope over time) (human whole blood; ML265 150 μM, vehicle slope 237.3): 37.92 | thrombus formation vs vehicle control (human whole blood; ML265 50 or 100 μM, collagen, 1500 s-1, 5 minutes): no significant difference

Reference: patent US12337005B2, “Methods of treating thrombosis” (UNIVERSITY OF IOWA RESEARCH FOUNDATION, priority 2020, dated 2025)
